# In EP0291751A2, “Pharmaceutical mixture preparation” (Wilhelm, Gerhard, Dr., priority 1987, dated 1988):
# Tested on: Symptome des Heuschnupfens
# Settings: alone or together, without Hydroxiphenylalkanolamin
smiles,measurement,value
Cc1ncc(C[n+]2csc(CCO)c2C)c(N)n1 [Vitamin B₁],die Symptome des Heuschnupfens lindernde Wirkung,weder alleine noch gemeinsam miteinander
